Results as given in patent US20240132431A1, “METHOD FOR ALKYLATING ACIDIC FUNCTIONAL GROUP” (Chugai Seiyaku Kabushiki Kaisha, priority 2021, published 2024).

Molecular target: T1, Bcl-2 protein (Recombinant Human Bcl-2 Protein) (Homo sapiens, UniProt P10415)
T1 construct: purchased Novus NBP2-34889
Assay: Binding evaluation of mixture library compounds to Bcl-2 using AS-MS (affinity selection mass spectrometry)
How it was run: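 ASMS Ratio (%) was calculated as (A−C)/B×100, where A is the protein sample after SEC, B the protein-free sample without SEC and C the protein-free sample after SEC. Each compound was at […] in a 1200-member pool with 20 μM Bcl-2, incubated 1 h at 23° C.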

T1 sequence (P10415 whole entry): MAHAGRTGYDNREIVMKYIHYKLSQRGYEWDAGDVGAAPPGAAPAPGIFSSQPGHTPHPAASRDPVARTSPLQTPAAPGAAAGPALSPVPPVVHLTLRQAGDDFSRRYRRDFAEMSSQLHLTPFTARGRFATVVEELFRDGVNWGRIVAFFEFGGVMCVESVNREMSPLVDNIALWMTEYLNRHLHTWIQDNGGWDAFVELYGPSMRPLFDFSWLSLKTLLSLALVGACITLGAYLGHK

Row | ASMS ratio (%) (n = 1) | ASMS ratio (%) (n = 2) | SMILES
1 | 0.0 | 0.0 | CCOc1cncc(-c2cc(CN3CCN(c4ccc(C(=O)NS(C)(=O)=O)cc4)CC3)cc(OCC)c2)c1 [B2I056-01]
2 | 0.0 | 0.0 | CCOc1cncc(-c2cc(CN3CCN(c4ccc(C(=O)NS(C)(=O)=O)cc4)CC3)cc(OC(C)C)c2)c1 [B2I058-01, 4-[4-[[3-(5-Ethoxypyridin-3-yl)-5-propan-2-yloxyphenyl]methyl]piperazin-1-yl]-N-methylsulfonylbenzamide]
3 | 0.0 | 0.0 | CCOc1cncc(-c2cc(OC)c(CN3CCN(c4ccc(C(=O)NS(C)(=O)=O)cc4)CC3)c(OC)c2)c1 [B2I060-01]
4 | −0.8 | 0.5 | CCOc1cccc(-c2cc(CN3CCN(c4ccc(C(=O)NS(C)(=O)=O)cc4)CC3)cc(C(F)(F)F)c2)c1 [B2I061-01, 4-[4-[[3-(3-Ethoxyphenyl)-5-(trifluoromethyl)phenyl]methyl]piperazin-1-yl]-N-methylsulfonylbenzamide]
5 | 0.0 | 0.0 | CCOc1cncc(-c2cc(CN3CCN(c4ccc(C(=O)NS(C)(=O)=O)cc4)CC3)cc(C(F)(F)F)c2)c1 [B2I062-01, 4-[4-[[3-(5-Ethoxypyridin-3-yl)-5-(trifluoromethyl)phenyl]methyl]piperazin-1-yl]-N-methylsulfonylbenzamide]
6 | 0.0 | 0.0 | CCOc1cncc(-c2cc(CN3CCN(c4ccc(C(=O)NS(C)(=O)=O)cc4)CC3)cc(OC(F)(F)F)c2)c1 [B2I064-01, 4-[4-[[3-(5-Ethoxypyridin-3-yl)-5-(trifluoromethoxy)phenyl]methyl]piperazin-1-yl]-N-methylsulfonylbenzamide]
7 | 0.0 | 0.0 | CCOc1cccc(-c2ccc(CN3CCN(c4ccc(C(=O)NS(C)(=O)=O)cc4)CC3)c3ccccc23)c1 [B2I065-01, 4-[4-[[4-(3-Ethoxyphenyl)naphthalen-1-yl]methyl]piperazin-1-yl]-N-methylsulfonylbenzamide]
8 | 0.0 | 0.0 | CCOc1cncc(-c2ccc(CN3CCN(c4ccc(C(=O)NS(C)(=O)=O)cc4)CC3)c3ccccc23)c1 [B2I066-01, 4-[4-[[4-(5-Ethoxypyridin-3-yl)naphthalen-1-yl]methyl]piperazin-1-yl]-N-methylsulfonylbenzamide]
9 | 0.0 | 0.0 | CCOc1cccc(-c2csc(CN3CCN(c4ccc(C(=O)NS(C)(=O)=O)cc4)CC3)c2)c1 [B2I067-01, 4-[4-[[4-(3-Ethoxyphenyl)thiophen-2-yl]methyl]piperazin-1-yl]-N-methylsulfonylbenzamide]
10 | 0.0 | 0.0 | CCOc1cncc(-c2csc(CN3CCN(c4ccc(C(=O)NS(C)(=O)=O)cc4)CC3)c2)c1 [B2I068-01]
11 | 0.0 | −2.2 | CCOc1cccc(C#Cc2ccccc2CN2CCN(c3ccc(C(=O)NS(C)(=O)=O)cc3)CC2)c1 [B2I069-01]
12 |  | 0.0 | CCOc1cncc(C#Cc2ccccc2CN2CCN(c3ccc(C(=O)NS(C)(=O)=O)cc3)CC2)c1 [B2I070-01, 4-[4-[[2-[2-(5-Ethoxypyridin-3-yl)ethynyl]phenyl]methyl]piperazin-1-yl]-N-methylsulfonylbenzamide]
13 | 0.8 | 1.3 | CCOc1cncc(-c2ccccc2CN2CCN(c3ccc(C(=O)NS(C)(=O)=O)nn3)CC2)c1 [B2I072-01, 6-[4-[[2-(5-Ethoxypyridin-3-yl)phenyl]methyl]piperazin-1-yl]-N-methylsulfonylpyridazine-3-carboxamide]

Further lines, the compound ahead of its results:

Row | SMILES | ASMS ratio (%) (n = 1) | ASMS ratio (%) (n = 2)
14 | CCOc1cccc(-c2cc(CN3CCN(c4ccc(C(=O)NS(C)(=O)=O)cc4)CC3)cc(OC(C)C)c2)c1 [B2I057-01, 4-[4-[[3-(3-Ethoxyphenyl)-5-propan-2-yloxyphenyl]methyl]piperazin-1-yl]-N-methylsulfonylbenzamide] | 0.0 | 0.0
15 | CCOc1cccc(-c2cc(OC)c(CN3CCN(c4ccc(C(=O)NS(C)(=O)=O)cc4)CC3)c(OC)c2)c1 [B2I059-01] | 0.0 | 0.0
16 | CCOc1cccc(-c2cc(CN3CCN(c4ccc(C(=O)NS(C)(=O)=O)cc4)CC3)cc(OC(F)(F)F)c2)c1 [B2I063-01, 4-[4-[[3-(3-Ethoxyphenyl)-5-(trifluoromethoxy)phenyl]methyl]piperazin-1-yl]-N-methylsulfonylbenzamide] | 0.9 | 0.0
17 | CCOc1cccc(-c2ccccc2CN2CCN(c3ccc(C(=O)NS(C)(=O)=O)nn3)CC2)c1 [B2I071-01, 6-[4-[[2-(3-Ethoxyphenyl)phenyl]methyl]piperazin-1-yl]-N-methylsulfonylpyridazine-3-carboxamide] | −1.2 | −1.9
18 | CCOc1cccc(-c2ccc(CN3CCN(c4ccc(C(=O)NS(C)(=O)=O)nn4)CC3)cc2C)c1 [B2I073-01, 6-[4-[[4-(3-Ethoxyphenyl)-3-methylphenyl]methyl]piperazin-1-yl]-N-methylsulfonylpyridazine-3-carboxamide] | 0.0 | 0.0
19 | CCOc1cncc(-c2ccc(CN3CCN(c4ccc(C(=O)NS(C)(=O)=O)nn4)CC3)cc2C)c1 [B2I074-01, 6-[4-[[4-(5-Ethoxypyridin-3-yl)-3-methylphenyl]methyl]piperazin-1-yl]-N-methylsulfonylpyridazine-3-carboxamide] | 0.0 | −8.4
20 | CCOc1cccc(-c2ccc(CN3CCN(c4ccc(C(=O)NS(C)(=O)=O)nn4)CC3)c(CC)c2)c1 [B2I075-01] | 0.0 | 0.0
21 | CCOc1cncc(-c2ccc(CN3CCN(c4ccc(C(=O)NS(C)(=O)=O)nn4)CC3)c(CC)c2)c1 [B2I076-01, 6-[4-[[4-(5-Ethoxypyridin-3-yl)-2-ethylphenyl]methyl]piperazin-1-yl]-N-methylsulfonylpyridazine-3-carboxamide] | 0.2 | −3.2
22 | CCOc1cccc(-c2ccc(CN3CCN(c4ccc(C(=O)NS(C)(=O)=O)nn4)CC3)cc2F)c1 [B2I077-01, 6-[4-[[4-(3-Ethoxyphenyl)-3-fluorophenyl]methyl]piperazin-1-yl]-N-methylsulfonylpyridazine-3-carboxamide] | 0.0 | 0.0
23 | CCOc1cncc(-c2ccc(CN3CCN(c4ccc(C(=O)NS(C)(=O)=O)nn4)CC3)cc2F)c1 [B2I078-01] | 0.0 | 0.0
24 | CCOc1cccc(-c2ccc(CN3CCN(c4ccc(C(=O)NS(C)(=O)=O)nn4)CC3)c(OC)c2)c1 [B2I079-01, 6-[4-[[4-(3-Ethoxyphenyl)-2-methoxyphenyl]methyl]piperazin-1-yl]-N-methylsulfonylpyridazine-3-carboxamide] | 0.0 | 0.0
25 | CCOc1cncc(-c2ccc(CN3CCN(c4ccc(C(=O)NS(C)(=O)=O)nn4)CC3)c(OC)c2)c1 [B2I080-01, 6-[4-[[4-(5-Ethoxypyridin-3-yl)-2-methoxyphenyl]methyl]piperazin-1-yl]-N-methylsulfonylpyridazine-3-carboxamide] | 0.0 | 
26 | CCOc1cccc(-c2cc(CN3CCN(c4ccc(C(=O)NS(C)(=O)=O)nn4)CC3)cc(OCC)c2)c1 [B2I081-01] | 0.0 | 0.0
27 | CCOc1cncc(-c2cc(CN3CCN(c4ccc(C(=O)NS(C)(=O)=O)nn4)CC3)cc(OCC)c2)c1 [B2I082-01, 6-[4-[[3-Ethoxy-5-(5-ethoxypyridin-3-yl)phenyl]methyl]piperazin-1-yl]-N-methylsulfonylpyridazine-3-carboxamide] | 0.0 | 1.9
28 | CCOc1cccc(-c2cc(CN3CCN(c4ccc(C(=O)NS(C)(=O)=O)nn4)CC3)cc(OC(C)C)c2)c1 [B2I083-01, 6-[4-[[3-(3-Ethoxyphenyl)-5-propan-2-yloxyphenyl]methyl]piperazin-1-yl]-N-methylsulfonylpyridazine-3-carboxamide] | 0.0 | 0.0
29 | CCOc1cncc(-c2cc(CN3CCN(c4ccc(C(=O)NS(C)(=O)=O)nn4)CC3)cc(OC(C)C)c2)c1 [B2I084-01] | −0.9 | −1.5
30 | CCOc1cccc(-c2cc(OC)c(CN3CCN(c4ccc(C(=O)NS(C)(=O)=O)nn4)CC3)c(OC)c2)c1 [B2I085-01, 6-[4-[[4-(3-Ethoxyphenyl)-2,6-dimethoxyphenyl]methyl]piperazin-1-yl]-N-methylsulfonylpyridazine-3-carboxamide] | 0.0 | 0.0
31 | CCOc1cncc(-c2cc(OC)c(CN3CCN(c4ccc(C(=O)NS(C)(=O)=O)nn4)CC3)c(OC)c2)c1 [B2I086-01, 6-[4-[[4-(5-Ethoxypyridin-3-yl)-2,6-dimethoxyphenyl]methyl]piperazin-1-yl]-N-methylsulfonylpyridazine-3-carboxamide] | 0.0 | 0.0
32 | CCOc1cccc(-c2cc(CN3CCN(c4ccc(C(=O)NS(C)(=O)=O)nn4)CC3)cc(C(F)(F)F)c2)c1 [B2I087-01, 6-[4-[[3-(3-Ethoxyphenyl)-5-(trifluoromethyl)phenyl]methyl]piperazin-1-yl]-N-methylsulfonylpyridazine-3-carboxamide] | 1.3 | −0.9
33 | CCOc1cncc(-c2cc(CN3CCN(c4ccc(C(=O)NS(C)(=O)=O)nn4)CC3)cc(C(F)(F)F)c2)c1 [B2I088-01, 6-[4-[[3-(5-Ethoxypyridin-3-yl)-5-(trifluoromethyl)phenyl]methyl]piperazin-1-yl]-N-methylsulfonylpyridazine-3-carboxamide] | 0.0 | 0.0
